Legend:
[1] = target: T1, recombinant AMPK (α2/β1/γ1) (Homo sapiens, UniProt P54646); test: AMPK enzymatic activity assay (CycLex kit); assay type: biochemical
T1 construct: purchased CycLex, Japan
Description: More particularly, AMPK enzymatic activity was measured by an AMPK activity assay kit (CycLex, Japan) and recombinant AMPK (α2/β1/γ1 CycLex, Japan).

[2] = system: cultured cerebral cortex neurons of a mouse; test: Inhibition of a variety of neurotoxicity, LDH assay (quaternary screening); assay type: cell-based; settings: 20 μM, NMDA, FeCl2, H2O2, TPEN, staurosporine, etoposide toxicity
Description: More particularly, the cultured cerebral cortex neurons of a mouse were treated with 50 μM NMDA, 50 μM FeCl2, 100 μM H2O2, 2 μM TPEN (N,N,N′,N′-tetrakis (2-pyridylmethyl) ethylenediamine, Sigma), 500 nM staurosporine (Abcam) and 10 μM etoposide (Sigma), respectively, to induce neurotoxicity, followed by treatment using the selected 7 compounds at a concentration of 20 μM in order to observe neuro-protective effects. A degree of apoptosis of these cells was quantified by LDH assay. The neurotoxicity models used above include, for example, excitotoxicity, oxidative damage and apoptosis that are considered as a cause mechanism of stroke, in particular, the excitotoxicity model was NMDA, the oxidative damage model was iron toxicity and H2O2 toxicity models, and the apoptosis model was TPEN, staurosporine and etoposide toxicity models. The TPEN is a zinc chelator which is well known to cause typical apoptosis in neuronal cells, staurosporine is an enzyme inhibitor (kinase inhibitor) which is also well known as one of typical apoptosis inductive materials, and etoposide is a drug known to cause apoptosis due to DNA damage.

[3] = system: male Sprague-Dawley (SD) rats; test: Acute toxicity test; assay type: in vivo; set-up: RBC: unit not given here; settings: 75 μg/kg intra-cerebroventricular
Excerpt: This procedure was repeated 4 times.
Further, the rat was sacrificed, and specific organs such as the liver, spleen and kidney were extracted, followed by measurement of weights thereof (FIG. 7).

[4] = Free zinc concentration by pZn meter (test tube); assay type: physicochemical; settings: 2.5 to 20 μM drug, ZnAF 2.5 μM
Description: In order to measure free zinc concentration levels, the drug #28 of the present invention was used for treatment in different concentrations (2.5 to 20 μM) along with ZnAF (2.5 μM) as a zinc fluorescent material on a test tube. On the other hand, a control group uses clioquinol (1 to 5 μM) well known as a very stronger zinc chelator. A free zinc concentration was measured by a pZn meter (NeuroBioTex Inc.).

[5] = Free zinc concentration by fluorescent dye (Newport green DCF, FluoZin-3); assay type: physicochemical
Description: Further, in conjunction with clioquinol (20 μM) or the drug #28 (20 μM), a zinc fluorescent dye, i.e., Newport green DCF (0.5 μM, Kd(Zn)=1 uM) or FluoZin-3 (0.5 μM, Kd(Zn)=15 nM) was used for measurement of free zinc concentration.

[6] = system: cultured cerebral cortex neurons of a mouse; test: Intracellular free zinc after zinc exposure, FluoZin-3 (confocal microscope, fluorometer); assay type: cell-based
Description: In order to monitor whether an actual free zinc concentration in neuronal cells is increased or not, the cultured cerebral cortex neurons of a mouse were pre-treated with a FluoZin-3 staining material, exposed to high concentration zinc, and then, treated with 4C01 (20 μM), 4C07 (20 μM) and the drug #28 (20, 50 μM). Thereafter, images of these treated neurons were observed using a confocal laser fluorescence microscope, and a fluorescent size was quantitatively measured using a fluorescence photometer (fluorometer).

[7] = system: neuronal cells; test: H2O2-mediated intracellular zinc increase, FluoZin-3 staining; assay type: cell-based; settings: FluoZin-3, confocal microscopy
[8] = system: mouse cortical cultures; test: TPEN-induced caspase-3 activity; assay type: cell-based
Excerpt: Generally, application of TPEN as a zinc chelator easily flowing into the cells causes a cell death in the form of typical apoptosis (EDTA is not introduced into the cells). When adding zinc to the above treatment, intracellular free zinc ions are retained thus to reduce neuronal death and further reduce caspase-3 protease activity in the apoptosis process. Under expectation such that: the drug #28 and clioquinol may not only serve as a chelator but also play a role of an ion permeable carrier; these drugs flow into cells as combined with zinc; thereafter, the zinc is removed from the drug because a concentration of free zinc in the cytoplasm is too low; therefore, the concentration of free zinc in the cytoplasm is increased thus to reduce neurotoxicity due to TPEN, caspase-3 activity and neurotoxicity (LDH secretion) were under observation after treatment using zinc, the drug #28 and clioquinol.

[9] = system: cultured cerebral cortex neurons of a mouse; test: Zinc ion permeable carrier test, ZinPyr-1; assay type: cell-based
Description: ZinPyr-1 is a fluorescent dye which has a lower Kd value than that of FluoZin-3 and is used to measure a change in a zinc concentration even at a lower concentration. Whether the drug #28 of the present invention can act as an ion permeable carrier was under observation using ZinPyr-1. More particularly, the cultured cerebral cortex neurons of a mouse were treated with ZinPyr-1 then treated with the drug #28 (0.05 μM) and clioquinol (0.5 μM) in a typically used neuronal cell culture medium, so as to determine a change in zinc ion concentrations in the neurons. Also, a non-treatment group was used as a control group.
Therefore, after adding a further 0.5 μM concentration of zinc to the cell culture medium, a change in zinc concentration in the cells was under observation.

T1 sequence (P54646 whole entry): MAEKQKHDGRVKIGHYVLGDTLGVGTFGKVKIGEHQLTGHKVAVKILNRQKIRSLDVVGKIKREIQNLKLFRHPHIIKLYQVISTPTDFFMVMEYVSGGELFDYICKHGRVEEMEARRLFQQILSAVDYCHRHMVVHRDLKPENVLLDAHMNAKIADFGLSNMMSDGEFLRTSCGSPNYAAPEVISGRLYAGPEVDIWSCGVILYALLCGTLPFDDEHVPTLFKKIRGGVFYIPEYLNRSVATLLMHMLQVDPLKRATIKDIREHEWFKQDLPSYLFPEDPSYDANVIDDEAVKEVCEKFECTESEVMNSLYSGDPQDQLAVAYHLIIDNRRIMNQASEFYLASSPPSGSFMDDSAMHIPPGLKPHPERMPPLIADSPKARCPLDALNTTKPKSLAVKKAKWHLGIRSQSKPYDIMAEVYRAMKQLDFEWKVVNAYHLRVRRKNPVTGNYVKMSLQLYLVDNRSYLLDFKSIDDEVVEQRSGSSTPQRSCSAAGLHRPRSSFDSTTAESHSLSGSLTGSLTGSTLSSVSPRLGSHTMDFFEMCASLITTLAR
T1 sequence (Q9Y478 whole entry partner): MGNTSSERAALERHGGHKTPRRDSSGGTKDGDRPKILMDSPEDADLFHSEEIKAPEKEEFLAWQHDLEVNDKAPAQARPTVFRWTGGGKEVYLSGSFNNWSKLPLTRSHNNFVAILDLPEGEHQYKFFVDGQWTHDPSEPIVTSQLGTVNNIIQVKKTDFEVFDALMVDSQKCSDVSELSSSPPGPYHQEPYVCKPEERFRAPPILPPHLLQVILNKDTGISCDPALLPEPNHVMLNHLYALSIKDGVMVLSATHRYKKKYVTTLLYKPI
T1 sequence (P54619 whole entry partner): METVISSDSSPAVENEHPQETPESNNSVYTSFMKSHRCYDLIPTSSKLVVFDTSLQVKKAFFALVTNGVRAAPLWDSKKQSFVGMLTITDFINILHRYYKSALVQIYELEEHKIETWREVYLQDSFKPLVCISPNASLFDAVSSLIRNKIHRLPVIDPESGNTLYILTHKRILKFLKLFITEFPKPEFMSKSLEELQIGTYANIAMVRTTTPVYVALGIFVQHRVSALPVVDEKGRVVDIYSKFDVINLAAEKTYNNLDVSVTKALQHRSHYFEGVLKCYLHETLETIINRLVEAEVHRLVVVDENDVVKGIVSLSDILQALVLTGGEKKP

**Q.** What does the source list for O=C1N=C(Nc2cccc(O)c2)S/C1=C\c1c[nH]c2ccccc12 [compound 28, (Z)-5-((1H-indol-3-yl)methylene)-2-((3-hydroxyphenyl)amino)thiazol-4(5H)-one]?
**A.** remaining activity at 10 µM [1]: 3.97%; inhibitory effects on neurotoxicity [2]: inhibitory effects on any toxicity; toxicity by blood indicators compared to control group [3]: noticeable toxicity was not observed; dead rats ([3]; 24 hours): dead rats were not found; ALT ([3]; n = 4, blood): 54.5 ± 8.2 U/L; AST ([3]; n = 4, blood): 142.3 ± 50.7 U/L; BUN ([3]; n = 4, blood): 17.6 ± 1.8 mg/dL; CREA ([3]; n = 4, blood): 0.5 ± 0.0 mg/dL; GLU ([3]; n = 4, blood): 174.6 ± 18.0 mg/dL; RBC ([3]; n = 4, blood): 7.4 ± 0.5 ×10^3; WBCB ([3]; n = 4, blood): 11.6 ± 1.9 ×10^3 cell/uL; free zinc concentration [4]: reduced in a concentration-dependent manner; zinc affinity compared to clioquinol [5]: considerably low compared to clioquinol; free zinc concentration, low concentration zinc ([5]; 20 μM, FluoZin-3 (FIG. 13)): did not show remarkable effects; free zinc concentration, high concentration zinc ([5]; 20 μM, Newport green DCF (FIG. 12)): exhibited effects of decreasing the free zinc concentration; free zinc ions ([5]; 20 μM, Newport green DCF or FluoZin-3): reduce free zinc ions; increase in intracellular free zinc, fluorescence magnitude ([6]; 4C01, 4C07 20 μM, #28 20, 50 μM, fluorometer): inhibit an increase in intracellular free zinc to the similar level; increase in free zinc in the neurons ([6]; high concentration zinc, 20, 50 μM, confocal microscope): significantly reduced; zinc in the neuronal cells during H2O2 toxicity [7]: zinc reduction in the neuronal cells; caspase-3 activity induced by TPEN [8]: significantly reduce caspase-3 activity induced by TPEN; increase of zinc in neurons, general culture conditions ([9]; #28 0.05 μM, clioquinol 0.5 μM): not clearly demonstrated; increase of zinc in neurons, zinc-supplemented medium ([9]; further 0.5 μM zinc added to the cell culture medium): significant increase in zinc

From patent publication US20190167647A1, “PHARMACEUTICAL COMPOSITION FOR STROKE TREATMENT BASED ON AMPK INHIBITION” (INDUSTRY ACADEMY COOPERATION FOUNDATION OF SEJONG UNIVERSITY, priority 2016, published 2019)
